Reference: patent US9957498B2, “Photoremovable protecting groups and uses thereof” (Iowa State University Research Foundation, Inc., priority 2015, dated 2018)

Legend:
[1] = UV-Vis spectroscopy: absorption maximum and extinction coefficient; format: physicochemical
Method: (§1) The observed substrate release rate as a function of photolysis time is quantified by the quantum efficiency parameter (ϵΦ), which is the product of the extinction coefficient at the irradiation wavelength (ϵ) and the quantum yield (Φ). Extinction coefficients for compounds 1-6 were determined by UV-Vis spectroscopy (see Table 1).

[2] = Fluorescence emission of compound solutions; format: physicochemical
Text: FIG. 2 is a plot of normalized fluorescence as a function of wavelength for compounds 1-6 described herein.
See, e.g., Petr Klán et al., Chem. Rev. 113: 119-191 (2013), which is incorporated by reference as if fully set forth herein. Even thought the quantum yields for compounds 1-4 are lower than those for some o-nitrobenzyl photocaged structures, this lower quantum yield is compensated by the much higher extinction coefficients of the BODIPY chromophores compared to the o-nitrobenzyl chromophore, leading to reasonable quantum efficiencies. […] While not being bound by any particular theory, it is plausible that the higher quantum yield of compound 6 occurs because the iodine atoms promote intersystem crossing to a triplet state, which are usually longer lived than […]. Given that the triplet state of the corresponding carbocation is the computed ground state by ˜5 kcal/mol, it is certainly energetically reasonable that heterolysis could occur in the triplet excited state leading to the triplet “carbocation,” similar to the phenacyl photocage derivatives described by Givens et al., Can. J. Chem. 89: 364-384 (2011), which is incorporated by reference as if fully set forth herein.

[3] = Quantum yield of photorelease of acetic acid (ferrioxalate actinometry, 532 nm laser, LC-UV); format: physicochemical; conditions: for Φ (quantum yield of acetic acid release): MeOH, 532 nm ND:YAG laser, LC-UV
Method: as §1
To compute the quantum yields of photorelease (Φ), the flux of a 532 nm laser excitation beam (ND:YAG, 1st harmonic) was determined using potassium ferrioxalate actinometry. Release of acetic acid as a function of laser irradiation time in methanol was followed by quantitative LC/UV methods known in the art. Each quantum yield reported is the average of 3 separate runs. […] Additionally, repeating the quantum yield measurement for compound 2 on a different day with a different laser power setting (in triplicate) gave an identical value for the quantum yield, indicating reproducibility.
All quantum yields were carried out using a liquid-phase potassium ferrioxalate actinometer. The actinometer was prepared by mixing three volumes of 1.5 M K2C2O4 solution with one volume of 1.5 M FeCl3 solution in water, and stirring in complete darkness. The precipitated K3Fe(C2O4)3.3H2O was then recrystallized three times from hot water and dried in a current of warm air. To prepare 1 L of 0.15M K3Fe(C2O4)3.3H2O solution, 73.68 g of the precipitate was dissolved in 800 mL water; 100 mL 1.0 N sulfuric acid was added and filled to the mark with water, again in complete darkness. For all quantitative work the preparation and manipulation of the ferrioxalate solutions must be carried out in a darkroom, using a red light. The light intensity in a photochemical reaction is determined by irradiating ferrioxalate solution and monitoring the subsequent change in absorbance at 510 nm. Irradiation was conducted using 532 nm excitation from a ND:YAG laser source (1st harmonic). Autopipettes were used to ensure all volumes were accurately measured.
For each actinometric measurement a methacrylate cuvette was filled with 3 mL of 0.15 M ferrioxalate solution. The cell was placed in the sample holder, stirred and irradiated for a set period of time (0, 0.25, 0.50, 0.75, 1, 2, 3 minutes). After the allocated irradiation time the solution was transferred into a 25 mL volumetric flask, to which was added in sequence 6 mL of a developer solution (0.05 mol % phenanthroline/0.75 M acetate/0.2 M sulfuric acid), 5 mL 1 M sodium fluoride solution in water. The sample was diluted to 25 mL with water, mixed and allowed to incubate for 10 minutes. After the incubation period was complete, 3 mL of sample was transferred into 1 cm methacrylate cuvette and the absorbance (at 510 nm) read using a spectrophotometer.
Using iron sulfate standard solutions between 1.6×10^−5 M to 9.6×10^−5 M, a standard curve based on absorbance of the ferrioxalate/phenanthroline complex at 510 nm was compiled and the irradiated samples absorbances were compared to yield the concentration iron (II) cleaved via photolysis within the timescale of experiment.
The flux of the laser was calculated the following equations:
[formula] where I is the flux (Einstein/L/s), Δn is the Fe^2+ photogenerated (mole), φ is the quantum yield at 532 nm, V1 is the irradiated volume (mL), and t=irradiation time (seconds);
[formula] where V2 is the volume taken from the irradiated sample (mL), V3 is the volume after dilution for concentration determination (mL), and CT is the concentration of Fe^2+ after dilution (M); and
[formula] where abs is the absorbance at 510 nm, ϵ is the molar absorptivity (M^−1 cm^−1) and l is the path length.
Due to the low absorbance of the potassium ferrioxalate solution at 532 nm, a correction was made to account for an absorbance less than 2 (multiplied the flux by 0.0967).
For each compound, a solution of 1000 ppm was prepared using 1 mg of sample and dissolving in 1 mL methanol. […]

HeLa cells = test: Trypan blue exclusion cytotoxicity assay, HeLa; format: cell-based, human; conditions: 20 μM, one hour incubation, ± standard deviation from two measurements
Method: (§2) Live cell experiments were performed with HeLa (human), GM07373 (bovine) or S2 (Drosophila) cells. HeLa and GM07373 cells were cultured in DMEM medium supplemented with 10% fetal bovine serum, […] (Fisher Scientific, Pittsburgh, Pa.) in a 37° C. water jacketed CO2 incubator (Thermo Scientific, Waltham, Mass.). HeLa and GM07373 cells were sub-cultured using 0.25% (w/v) trypsin-EDTA (Life Technology, Carlsbad, Calif.) solution every two days. Cells were sub-cultured onto custom-made glass bottom culture dishes two days before the microscopy experiment. On the day of the microscopy experiment, the growth media was replaced with 20 μM compound 12b in serum-free DMEM for one hour. Cells were rinsed with the imaging medium (pH=7.2, 155 mM NaCl, 5 mM KCl, 2 mM CaCl2, 1 mM MgCl2, 2 mM NaH2PO4, 10 mM HEPES and 10 mM Glucose) prior to collecting microscopy images. […]
(§3) HeLa, GM07373 or S2 cells were incubated with 20 μM of the compound 12b for an hour. Cytotoxicity of the compound was measured using trypan blue exclusion assays. […] The number of viable cells that excluded the dye was counted using a hemacytometer (Hausser Bright-Line, Hausser scientific, Horsham, Pa.) and an optical microscope.

S2 cells = test: Trypan blue exclusion cytotoxicity assay, S2; format: cell-based, Drosophila; conditions: 20 μM, one hour incubation, ± standard deviation from two measurements
Method: as §2, §3

GM07373 cells = test: Trypan blue exclusion cytotoxicity assay, GM07373; format: cell-based, bovine; conditions: 20 μM, one hour incubation, ± standard deviation from two measurements
Method: as §2, §3

Compound	λmax ([1]; Table 1) [nm]	ε ([1]; Table 1, extinction coefficient by UV-Vis spectroscopy) [M⁻¹ cm⁻¹]	ε ([1]; Table 2) [M⁻¹ cm⁻¹]	λmax ([1]; Table 2) [nm]	λem ([2]; Table 1) [nm]	λem ([2]; Table 2) [nm]	Φ (quantum yield of photorelease) ([3]; Table 1, acetic acid release, 532 nm laser, methanol, average of 3 runs)	εΦ (quantum efficiency) ([3]; Table 1, product of extinction coefficient and quantum yield) [M⁻¹ cm⁻¹]	εΦ (quantum efficiency) ([3]; Table 2) [M⁻¹ cm⁻¹]	Φ (quantum yield of acetic acid release) ([3]; Table 2, average of 3 runs)	% of Viable cells (HeLa cells) [%]	% of Viable cells (S2 cells) [%]	% of Viable cells (GM07373 cells) [%]
8-Acetoxymethyl-1,3,5,7-tetramethyl pyrromethene fluoroborate [Compound 2]	515	71000	71000	515	526	526	9.9 ×10^−4	70	70	9.9 ×10^−4			
3,5-Bis(4-(1,4,7,10-tetraoxaundecyl)styryl-1,7-dimethyl-8-(4-nitrobenzoato)pyrromethene fluoroborate [Compound 12b]											92 ± 5	93 ± 2	92 ± 5
CC(=O)OCC1=C2C(C)=CC(C=Cc3ccccc3)=[N+]2[B-](F)(F)n2c(C=Cc3ccccc3)cc(C)c21 [Compound 9, 8-Acetoxymethyl-3,5-bisstyryl-1,7-dimethyl pyrromethene fluoroborate]			65000	640		656			2.9	4.5 ×10^−4			
COc1ccc(/C=C/C2=[N+]3C(=C(COC(C)=O)c4c(C)cc(/C=C/c5ccc(OC)cc5)n4[B-]3(F)F)C(C)=C2)cc1 [Compound 10a, 8-Acetoxymethyl-3,5-bis(4-methoxy)styryl-1,7-dimethyl pyrromethene fluoroborate]			65000	661		684			2.7	4.1 ×10^−4			
CC(=O)OCC1=C2C(C)=CC(C)=[N+]2[B-](F)(F)n2c(C=Cc3ccc(N(C)C)cc3)cc(C)c21 [Compound 8, 8-Acetoxymethyl-3-(4-dimethylamino)styryl-1,5,7-trimethyl pyrromethene fluoroborate]			60000	633		650			4.1	6.9 ×10^−4			
COCCOCCOCCOc1ccc(C=CC2=[N+]3C(=C(CO)c4c(C)cc(C=Cc5ccc(OCCOCCOCCOC)cc5)n4[B-]3(F)F)C(C)=C2)cc1 [Compound 11b, 3,5-Bis(4-(1,4,7,10-tetraoxaundecyl)styryl-1,7-dimethyl-8-hydroxymethylpyrromethene fluoroborate]			120000	667									
COc1ccc(/C=C/c2cc(C)c3n2[B-](F)(F)[N+]2=C(C)C=C(C)C2=C3COC(C)=O)cc1 [Compound 7, 8-Acetoxymethyl-3-(4-methoxy)styryl-1,5,7-trimethyl pyrromethene fluoroborate]			61000	586		607			6.0	9.8 ×10^−4			
